In one experiment the test system is P388. Put plainly: Cytotoxicity against mouse P388 cells. The class given is functional. The settings on record: read-out: ED50 (the source's name).
A further experiment has as its system MCF7. Put plainly: Cytotoxicity against human MCF7 cells. The class given is functional. The settings on record: read-out: ED50 (the source's name).

≈ marks a conversion by molar mass, not a printed value.

Results on 5 compounds are retold here after ChEMBL document CHEMBL1144786, “synthesis and biological evaluation of fully functionalized seco-pancratistatin analogues” (2008).

As for `O=C1N[C@H]2C[C@H](O)[C@@H](O)C[C@@H]2c2cc3c(cc21)OCO3`, in the experiment with P388, the EC50 is 0.45 µg/mL (≈ 1.62 µM).

As for `O=C(NC[C@@H](c1ccc2c(c1)OCO2)[C@@H](O)[C@H](O)[C@@H](O)CO)c1ccccc1`, the EC50 in the experiment on MCF7 was greater than 30 µg/mL.

In the case of `O=C1N[C@H]2[C@H](O)[C@H](O)[C@@H](O)[C@H](O)[C@@H]2c2cc3c(c(O)c21)OCO3` [PANCRATISTATIN], the EC50 with P388 turned out to be 0.039 µg/mL (≈ 0.12 µM).

Take `O=C1N[C@H]2[C@H](O)[C@H](O)CC[C@@H]2c2cc3c(cc21)OCO3`: the EC50 with P388 was 1.39 µg/mL (≈ 5.01 µM).

`CC1(C)O[C@@H]([C@H](O)[C@@H](CNC(=O)c2ccccc2)c2ccc3c(c2)OCO3)[C@H](CO)O1`: the EC50 with MCF7 is greater than 30 µg/mL.
